Measurements from patent US20230233477A1, “Bi2O3 NANOPARTICLES PREPARED BY THE TOP-DOWN ULTRASONICATION ROUTE AS A BROAD-[sequence] ANTIMICROBIAL TO OVERCOME DRUG RESISTANCE IN ANTIBIOTICS” (KENT STATE UNIVERSITY, priority 2022, published 2023).

Key:
PA = format: cell-based, Pseudomonas aeruginosa; settings: sub-lethal concentration, after 13 days
Experimental: Drug resistance study. The MIC was determined using a broth dilution method. […] The as-prepared bacterial solutions were incubated at 37° C. for 24 h. After incubation, the MIC was determined as the lowest concentration that inhibited visible growth of the tested microorganisms with unaided eyes. This same procedure was done by serial passaging of the bacteria until 30 days. Later on, three types of mutant DSPA were prepared by treating with Ag NPs, ciprofloxacin and meropenem for 15 days.

DRPA (BAA-2108) = experiment: Checkerboard assay with meropenem against DRPA; format: cell-based; settings: Pseudomonas aeruginosa, BAA2108, single agent
Experimental: The degree of synergism was determined using a checkerboard assay in a 96-well plate (FIG. 4b). […] Combinations of the two treatments were prepared using the 2-fold dilution method to determine the fractional inhibitory concentration (FIC; Table S2). The FIC index is used to determine whether two treatments are synergistic (χ≤0.5), additive (0.5<χ<4) or antagonistic (χ≥4).^38 Checkerboard assay.

`O=C(O)c1cn(C2CC2)c2cc(N3CCNCC3)c(F)cc2c1=O` [ciprofloxacin] was tested, and the “MIC increase (fold)” value (PA) was 32 fold.

For `C[C@@H](O)[C@H]1C(=O)N2C(C(=O)O)=C(S[C@@H]3CN[C@H](C(=O)N(C)C)C3)[C@H](C)[C@H]12` [meropenem], the MIC (DRPA (BAA-2108)) was 2 µg/mL.
